Consider 7 compounds from patent EP0010119A1, “Isoquinoline derivatives, their preparation and pharmaceutical compositions containing these compounds” (THE MASSACHUSETTS GENERAL HOSPITAL, priority 1978, dated 1980).

Assay [1] relates to twitch response of the tibialis anterior muscle. As to the kind of experiment: Neuromuscular block of the twitch response of the tibialis anterior muscle in anesthetized monkeys. The assay is classed as in vivo, RHESUS MONKEY.
Assay [2] deals with skeletal muscle relaxation. Conditions: in vivo; cited from earlier work.
The mark [3] stands for this setting: time span from drug injection to full recovery of the twitch response, halothane, nitrous oxide and oxygen anesthesia, 4 animals per compound.

Turning to `COc1ccc(CC2c3cc(OC)c(OC)cc3CC[N+]2(C)CCCOC(=O)C=Cc2ccc(C=CC(=O)OCCC[N+]3(C)CCc4cc(OC)c(OC)cc4C3Cc3ccc(OC)c(OC)c3)cc2)cc1OC` (stereo not shown) [GG195, Bis-3-[N-methyl-1-(3,4-dimethoxybenzyl) 6,7-dimethoxy-1,2,3,4-tetrahydroisoquinolinium] propyl p-phenylene-3,3'-diacrylate dichlorid], the “Range of dupation of action (minutes from injection to full recovery)” value (“Range of dupation of action” below) in assay [1] (setting [3]) lay within 15 to 30 min.

For `COc1cc2c(cc1OC)C(Cc1cc(OC)c(OC)c(OC)c1)[N+](C)(CCCOC(=O)C=Cc1ccc(C=CC(=O)OCCC[N+]3(C)CCc4cc(OC)c(OC)cc4C3Cc3cc(OC)c(OC)c(OC)c3)cc1)CC2` (stereo not drawn) [HH109, Bis-3-[N-methyl-l-(3,4,5-trimethoxybenzyl)] 6,7-dimethoxy-1,2,3,4-tetrahydroisoquinolinium propyl p-phenylene-3,3'-diacrylate dichloride], in assay [1] (setting [3]), the “Range of dupation of action” value was 20 to 30 min.

As for `COc1ccc(CC2c3cc(OC)c(OC)cc3CC[N+]2(C)CCCOC(=O)Cc2ccc(CC(=O)OCCC[N+]3(C)CCc4cc(OC)c(OC)cc4C3Cc3ccc(OC)c(OC)c3)cc2)cc1OC` (stereo not shown) [KK100], in assay [1] (setting [3]), the “Range of dupation of action” value is 10 to 20 min.

For `COc1cc2c(cc1OC)C(Cc1cc(OC)c(OC)c(OC)c1)[N+](C)(CCCOC(=O)Cc1ccc(CC(=O)OCCC[N+]3(C)CCc4cc(OC)c(OC)cc4C3Cc3cc(OC)c(OC)c(OC)c3)cc1)CC2` (stereo not shown) [LL46, Bis-3-(N-methyl-1-(3,4,5-trimethoxybenzyl) 6,7-dimethoxy-1,2,3,4-tetrahydroisoquinolinium) propyl p-phenylene-3,3'-diacetate dichloride], the “Range of dupation of action” value in assay [1] (setting [3]) was in the range of 15 to 25 min.

Turning to `C[N+](C)(C)CCOC(=O)CCC(=O)OCC[N+](C)(C)C` [Succinyl-choline, succinylcholine chloride], in assay [1] (rhesus monkey, in vivo), the ED95 was 1,0 - 2,0 MG/NG cation and the “Range of dupation of action” value was 4 to 6 min. For the same compound, the duration of action in assay [2] is 5 to 15 min.

Take `C[N+](C)(C)CCCCCCCCCC[N+](C)(C)C` [decamethonium]: in assay [2], the duration of action is 20 to 40 min.

As to `COc1cc2c3cc1Oc1cc(ccc1O)C[C@@H]1c4c(cc(OC)c(O)c4Oc4ccc(cc4)C[C@@H]3N(C)CC2)CC[N+]1(C)C.Cl.O.O.O.O.O.[Cl-]` [l-Tube-curarine, d-tubocurarine chloride], the ED95 in assay [1] (dose range to produce 95 per cent block of the twitch response, muscle stimulated indirectly at 0,15 Hz via the sciatic nerve, halothane, nitrous oxide and oxygen anesthesia, 4 animals per compound) was 0,2 - 0,4 MG/NG cation. Also, in assay [1] (setting [3]), the “Range of dupation of action” value lay within 30 to 50 min.
